# Tested on: panel of breast cancer cell lines
# Test: Compound A with targeted agents and chemotherapies, 72-hour in vitro proliferation assays
# Format: cell-based
# Details: compound A × partner, 72-hour proliferation
compound,measurement,setting,value
N.N.[Cl][Pt][Cl] [Cisplatin],Best CI,AU565 cell line,0.79
same,Bliss Volume,AU565 cell line,7.67
same,HSA volume,AU565 cell line,−6.49
same,Loewe Volume,AU565 cell line,−5.19
same,Synergy Score,AU565 cell line,1.66
same,Best CI,BT-20 cell line,0.90
same,Bliss Volume,BT-20 cell line,13.49
same,HSA volume,BT-20 cell line,−0.68
same,Loewe Volume,BT-20 cell line,−2.71
same,Synergy Score,BT-20 cell line,2.27
same,Best CI,BT-474 cell line,0.47
same,Bliss Volume,BT-474 cell line,−2.63
same,HSA volume,BT-474 cell line,−4.63
same,Loewe Volume,BT-474 cell line,−4.42
same,Synergy Score,BT-474 cell line,2.85
same,Best CI,BT-549 cell line,1.01
same,Bliss Volume,BT-549 cell line,7.35
same,HSA volume,BT-549 cell line,2.86
same,Loewe Volume,BT-549 cell line,4.16
same,Synergy Score,BT-549 cell line,6.80
same,Best CI,CAL-51 cell line,0.48
same,Bliss Volume,CAL-51 cell line,7.18
same,HSA volume,CAL-51 cell line,4.36
same,Loewe Volume,CAL-51 cell line,6.98
same,Synergy Score,CAL-51 cell line,9.30
same,Best CI,CAL-85-1 cell line,1.09
same,Bliss Volume,CAL-85-1 cell line,6.84
same,HSA volume,CAL-85-1 cell line,4.63
same,Loewe Volume,CAL-85-1 cell line,4.66
same,Synergy Score,CAL-85-1 cell line,6.29
same,Best CI,CAL-120 cell line,0.19
same,Bliss Volume,CAL-120 cell line,1.51
same,HSA volume,CAL-120 cell line,0.51
same,Loewe Volume,CAL-120 cell line,1.48
same,Synergy Score,CAL-120 cell line,1.13
same,Best CI,CAL-148 cell line,0.13
same,Bliss Volume,CAL-148 cell line,19.20
same,HSA volume,CAL-148 cell line,19.03
same,Loewe Volume,CAL-148 cell line,18.76
same,Synergy Score,CAL-148 cell line,37.06
same,Best CI,CAMA-1 cell line,0.23
same,Bliss Volume,CAMA-1 cell line,16.63
same,HSA volume,CAMA-1 cell line,9.61
same,Loewe Volume,CAMA-1 cell line,9.28
same,Synergy Score,CAMA-1 cell line,18.49
same,Best CI,DU-4475 cell line,0.29
same,Bliss Volume,DU-4475 cell line,14.10
same,HSA volume,DU-4475 cell line,5.48
same,Loewe Volume,DU-4475 cell line,5.54
same,Synergy Score,DU-4475 cell line,7.00
same,Best CI,EVSA-T cell line,0.39
same,Bliss Volume,EVSA-T cell line,20.06
same,HSA volume,EVSA-T cell line,3.60
same,Loewe Volume,EVSA-T cell line,1.90
same,Synergy Score,EVSA-T cell line,2.53
same,Best CI,HCC38,0.60
same,Best CI Level,HCC38,115
same,Bliss Volume,HCC38,8.46
same,HSA volume,HCC38,3.08
same,Loewe Volume,HCC38,2.06
same,Synergy Score,HCC38,6.47
same,Best CI,HCC70,0.45
same,Best CI Level,HCC70,175
same,Bliss Volume,HCC70,18.00
same,HSA volume,HCC70,4.42
same,Loewe Volume,HCC70,2.24
same,Synergy Score,HCC70,9.16
same,Best CI,HCC1143 cell line,0.39
same,Bliss Volume,HCC1143 cell line,−0.20
same,HSA volume,HCC1143 cell line,−5.78
same,Loewe Volume,HCC1143 cell line,−3.31
same,Synergy Score,HCC1143 cell line,2.45
same,Best CI,HCC1569,0.43
same,Best CI Level,HCC1569,25
same,Bliss Volume,HCC1569,1.33
same,HSA volume,HCC1569,−1.41
same,Loewe Volume,HCC1569,−2.74
same,Synergy Score,HCC1569,1.82
same,Best CI,HCC1806,0.22
same,Best CI Level,HCC1806,70
same,Bliss Volume,HCC1806,8.46
same,HSA volume,HCC1806,3.81
same,Loewe Volume,HCC1806,5.93
same,Synergy Score,HCC1806,7.76
same,Best CI,HCC1937,1.07
same,Best CI Level,HCC1937,105
same,Bliss Volume,HCC1937,1.32
same,HSA volume,HCC1937,−1.15
same,Loewe Volume,HCC1937,−0.59
same,Synergy Score,HCC1937,1.75
same,Best CI,HCC1954,0.84
same,Best CI Level,HCC1954,180
same,Bliss Volume,HCC1954,5.89
same,HSA volume,HCC1954,−0.89
same,Loewe Volume,HCC1954,−1.88
same,Synergy Score,HCC1954,5.58
same,Best CI,HCC2218,0.54
same,Best CI Level,HCC2218,165
same,Bliss Volume,HCC2218,9.34

# — patent publication US11931424B2, “Combination MCL-1 inhibitors with anti-body drug conjugates” (Gilead Sciences, Inc., priority 2021, dated 2024)
